Laboratory results from ChEMBL document CHEMBL1641597, “An efficient one-pot synthesis of benzothiazolo-4β-anilino-podophyllotoxin congeners: DNA topoisomerase-II inhibition and anticancer activity” (Bioorg Med Chem Lett, 2011).
Where a name gives a salt, the structure may show the parent alone. The source made the active and inactive calls. The rule behind the calls is not given here.

Experiments:
HT-1080 = test: Cytotoxicity against human HT1080 assessed as inhibition of cell growth; format: functional, cell-based
COLO 205 = test: Cytotoxicity against human COLO205 assessed as inhibition of cell growth; format: functional, cell-based
[1] = Cytotoxicity against human DWD assessed as inhibition of cell growth; format: functional
HOP-62 = test: Cytotoxicity against human HOP62 assessed as inhibition of cell growth; format: functional, cell-based
[2] = target: DNA topoisomerase 2-alpha (Rattus norvegicus) (UniProt P41516); test: Inhibition of rat brain topoisomerase 2 assessed as relaxation of supercoiled pBR322 DNA
Chain of DNA topoisomerase 2-alpha (Rattus norvegicus) (P41516 whole entry): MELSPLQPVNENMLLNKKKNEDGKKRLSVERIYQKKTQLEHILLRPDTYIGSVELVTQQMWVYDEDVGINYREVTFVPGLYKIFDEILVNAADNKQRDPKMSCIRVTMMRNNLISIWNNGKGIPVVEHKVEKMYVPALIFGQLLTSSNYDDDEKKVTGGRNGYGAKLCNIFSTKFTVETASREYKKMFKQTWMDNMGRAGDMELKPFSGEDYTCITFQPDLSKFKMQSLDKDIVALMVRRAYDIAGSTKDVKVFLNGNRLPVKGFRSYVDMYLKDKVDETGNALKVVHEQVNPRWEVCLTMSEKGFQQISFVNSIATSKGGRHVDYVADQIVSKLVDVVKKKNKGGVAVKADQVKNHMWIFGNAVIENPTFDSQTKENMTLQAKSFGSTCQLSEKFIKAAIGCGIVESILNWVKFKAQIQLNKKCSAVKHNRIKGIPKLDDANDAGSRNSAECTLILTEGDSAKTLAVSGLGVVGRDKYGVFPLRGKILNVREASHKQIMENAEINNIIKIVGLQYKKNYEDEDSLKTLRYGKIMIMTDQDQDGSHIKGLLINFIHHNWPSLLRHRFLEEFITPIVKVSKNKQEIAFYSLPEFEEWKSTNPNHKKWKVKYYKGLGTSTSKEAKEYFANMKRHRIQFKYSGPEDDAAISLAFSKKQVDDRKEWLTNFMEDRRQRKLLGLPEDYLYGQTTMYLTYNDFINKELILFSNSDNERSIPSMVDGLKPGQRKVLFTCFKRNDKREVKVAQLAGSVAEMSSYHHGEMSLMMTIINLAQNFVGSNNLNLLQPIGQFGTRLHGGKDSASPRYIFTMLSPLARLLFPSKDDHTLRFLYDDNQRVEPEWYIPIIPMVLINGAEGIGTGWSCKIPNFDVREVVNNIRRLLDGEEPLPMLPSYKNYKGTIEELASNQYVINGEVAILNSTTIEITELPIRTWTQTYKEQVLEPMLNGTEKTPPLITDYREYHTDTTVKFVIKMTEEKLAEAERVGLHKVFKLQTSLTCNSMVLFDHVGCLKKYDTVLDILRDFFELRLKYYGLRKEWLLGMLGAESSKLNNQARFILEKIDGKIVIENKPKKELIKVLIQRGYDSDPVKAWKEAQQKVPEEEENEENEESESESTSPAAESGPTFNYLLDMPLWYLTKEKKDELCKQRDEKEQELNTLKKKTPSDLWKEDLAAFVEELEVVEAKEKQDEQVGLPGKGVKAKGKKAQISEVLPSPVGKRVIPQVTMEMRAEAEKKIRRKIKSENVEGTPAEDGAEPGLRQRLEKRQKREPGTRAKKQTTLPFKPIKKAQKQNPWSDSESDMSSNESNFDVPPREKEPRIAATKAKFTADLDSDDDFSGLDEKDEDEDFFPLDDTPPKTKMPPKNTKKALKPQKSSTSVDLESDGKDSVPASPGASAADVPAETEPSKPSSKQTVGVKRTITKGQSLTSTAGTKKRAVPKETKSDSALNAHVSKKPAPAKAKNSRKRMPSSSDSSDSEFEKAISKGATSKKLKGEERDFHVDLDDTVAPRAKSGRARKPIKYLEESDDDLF

Row | inhibition [2] | Compound | IC50 (HT-1080) [µM] | IC50 (COLO 205) [µM] | IC50 [1] [µM] | IC50 (HOP-62) [µM]
1 | – | COc1cc([C@@H]2c3cc4c(cc3[C@@H](Nc3ccc(-c5nc6c(Cl)cccc6s5)cc3)[C@H]3COC(=O)[C@H]23)OCO4)cc(OC)c1O | > 80 | 8.3 | 9.1 | 10.1
2 | – | COc1ccc2nc(-c3ccc(N[C@@H]4c5cc6c(cc5[C@@H](c5cc(OC)c(OC)c(OC)c5)[C@H]5C(=O)OC[C@@H]54)OCO6)cc3)sc2c1 | 9.5 | 7 | 5.2 | 15.2
3 | – | COc1cc([C@@H]2c3cc4c(cc3[C@H](O)[C@H]3COC(=O)[C@H]23)OCO4)cc(OC)c1OC [PODOFILOX] | 8.1 | 5 | 6.1 | 13.1
4 | Active | COc1cc([C@@H]2c3cc4c(cc3[C@@H](Nc3ccc(-c5nc6ccccc6s5)cc3)[C@H]3COC(=O)[C@H]23)OCO4)cc(OC)c1O | 9.7 | 2.7 | 2.3 | 30.1
5 | – | COc1cc([C@@H]2c3cc4c(cc3[C@@H](Nc3ccc(-c5nc6ccccc6s5)c(Cl)c3)[C@H]3COC(=O)[C@H]23)OCO4)cc(OC)c1O | > 80 | 8.3 | 6.5 | 8.6
6 | – | COc1cc([C@@H]2c3cc4c(cc3[C@@H](Nc3ccc(-c5nc6c(Cl)cccc6s5)cc3)[C@H]3COC(=O)[C@H]23)OCO4)cc(OC)c1OC | 9.1 | 7.1 | 7.3 | 60.3
7 | Active | COc1cc([C@@H]2c3cc4c(cc3[C@@H](Nc3ccc(-c5nc6ccccc6s5)cc3Br)[C@H]3COC(=O)[C@H]23)OCO4)cc(OC)c1O | – | – | – | –
8 | – | COc1cccc2c1C(=O)c1c(O)c3c(c(O)c1C2=O)C[C@@](O)(C(=O)CO)C[C@@H]3O[C@H]1C[C@H](N)[C@H](O)[C@H](C)O1 [DOXORUBICIN HYDROCHLORIDE] | 4.7 | 5.1 | 2.8 | 5.4
9 | Active | COc1ccc2nc(-c3ccc(N[C@@H]4c5cc6c(cc5[C@@H](c5cc(OC)c(O)c(OC)c5)[C@H]5C(=O)OC[C@@H]54)OCO6)cc3)sc2c1 | – | – | – | –
10 | Active | COc1cc([C@@H]2c3cc4c(cc3[C@@H](Nc3ccc(-c5nc6ccccc6s5)cc3)[C@H]3COC(=O)[C@H]23)OCO4)cc(OC)c1OC | 8.2 | 8.1 | 22 | > 80
